The record followed here is US4041022A, “Process for the manufacture of thyrocalcitonin” (Ciba-Geigy Corporation, priority 1967, dated 1977).

Data set [1] in a line: solubility. The format is physicochemical. The following applies: for solubility of the acetate: acetate of the peptide; for solubility of the trichloracetate: trichloracetate of the peptide.
Data set [2] in a line: stability towards mild oxidation with performic acid. The format is physicochemical. The procedure: b. 80 g of Bio-gel P6 are allowed to swell overnight in 0.1N-formic acid, then filled into a chromatography tube (internal diameter 2.5 cm) up to a height of 94 cm (when it has settled; total volume of the gel bed, 460 ml). 600 mg of the crude product obtained as described under (a) above are dissolved in 20 ml of 0.1N-formic acid, the solution poured on to the gel column, and eluted with 0.1N-formic acid. The eluate is passed through a recording UV percolation photometer (254 nm) and collected in fractions of 15 ml each. The eluates are analyzed by thin-layer chromatography over Sephadex G 25 (superfine) (registered Trade Mark) in 0.1N-formic acid (with chlorine/tolidine reagent), and tested biologically. The maximum activity is found in an eluate volume corresponding to 0.8 column volume. The fractions are lyophilized individually and yield 70% of the total activity; the best fractions have an activity of 40 MRC units/mg. The molecular weight of these active substances is below 5000. The product can be further purified by counter-current distribution and/or gel chromatography. For this purpose, batches of 2-5 g of the enriched material are subjected to counter-current distribution over 250-300 stages in the system n-butanol:methanol:0.1N-acetic acid (4:1:5). […]

Positions of bridges follow the written chain, without caps; N, C: chain ends. Non-standard residues stand in square brackets, D forms with d. Residues, ends and D or L forms follow the SMILES beside them. Met(O) = CS(=O)CC[C@H](N)C(=O)O

For `CSCC[C@H](NC(=O)CNC(=O)[C@H](CO)NC(=O)[C@H](Cc1ccccc1)NC(=O)[C@H](CCCNC(=N)N)NC(=O)[C@H](Cc1c[nH]cn1)NC(=O)[C@H](Cc1ccccc1)NC(=O)[C@H](CC(N)=O)NC(=O)[C@H](CC(N)=O)NC(=O)[C@H](CC(C)C)NC(=O)[C@H](CC(N)=O)NC(=O)[C@H](CCCNC(=N)N)NC(=O)[C@H](Cc1c[nH]c2ccccc12)NC(=O)[C@H](Cc1ccc(O)cc1)NC(=O)[C@H](C)NC(=O)[C@H](CO)NC(=O)[C@H](CC(C)C)NC(=O)[C@@H](NC(=O)[C@@H]1CSSC[C@H](N)C(=O)N[C@@H](CO)C(=O)N[C@@H](CC(N)=O)C(=O)N[C@@H](CC(C)C)C(=O)N[C@@H](CO)C(=O)N[C@@H]([C@@H](C)O)C(=O)N1)C(C)C)C(=O)NCC(=O)N[C@@H](Cc1ccccc1)C(=O)NCC(=O)N1CCC[C@H]1C(=O)N[C@@H](CCC(=O)O)C(=O)N[C@H](C(=O)N1CCC[C@H]1C(N)=O)[C@@H](C)O` [α-thyrocalcitonin] (H-CSNLSTCVLSAYWRNLNNFHRFSGMGFGPETP-NH2; disulfide 1-7), in data set [1], the “solubility of the acetate” value was “readily soluble” and the “solubility of the trichloracetate” value was “rather sparingly soluble”. Also, the “stability towards mild oxidation with performic acid” value in data set [2] is “becomes a more polar product”.
For `CC(C)C[C@H](NC(=O)[C@H](CC(N)=O)NC(=O)[C@H](CCCNC(=N)N)NC(=O)[C@H](Cc1c[nH]c2ccccc12)NC(=O)[C@H](Cc1ccc(O)cc1)NC(=O)[C@H](C)NC(=O)[C@H](CO)NC(=O)[C@H](CC(C)C)NC(=O)[C@@H](NC(=O)[C@@H]1CSSC[C@H](N)C(=O)N[C@@H](CO)C(=O)N[C@@H](CC(N)=O)C(=O)N[C@@H](CC(C)C)C(=O)N[C@@H](CO)C(=O)N[C@@H]([C@@H](C)O)C(=O)N1)C(C)C)C(=O)N[C@@H](CC(N)=O)C(=O)N[C@@H](CC(N)=O)C(=O)N[C@@H](Cc1ccccc1)C(=O)N[C@@H](Cc1c[nH]cn1)C(=O)N[C@@H](CCCNC(=N)N)C(=O)N[C@@H](Cc1ccccc1)C(=O)N[C@@H](CO)C(=O)NCC(=O)N[C@@H](CC[S+](C)[O-])C(=O)NCC(=O)N[C@@H](Cc1ccccc1)C(=O)NCC(=O)N1CCC[C@H]1C(=O)N[C@@H](CCC(=O)O)C(=O)N[C@H](C(=O)N1CCC[C@H]1C(N)=O)[C@@H](C)O` (stereo partly drawn) [β-thyrocalcitonin] (H-CSNLSTCVLSAYWRNLNNFHRFSG[Met(O)]GFGPETP-NH2; disulfide 1-7) the same measures were “readily soluble”, “rather sparingly soluble” and “stable”.
